From patent US12498382B2, “Biomarkers for vitiligo” (INCYTE CORPORATION, priority 2019, dated 2025)

Test system: HaCaT cells
Assay: Concentrations of inflammatory mediators produced by HaCaT cells stimulated with TNFα and IFNγ in presence/absence of JAK inhibitors (ProCarta)
Format: cell-based, human
Conditions: TNFα 25 ng/mL + IFNγ 25 ng/mL
Experimental: After 48 hours, cell culture media was removed from 24 well plates and replaced with 250 uL of media containing serial diluted drug, then incubated for 15 minutes at 37° C./5% CO2. […] The final concentration of Recombinant Human Interferon gamma and Recombinant Human Tumor Necrosis Factor alpha was 25 ng/mL of each cytokine. Cytokine stimulation added to wells containing drug brought the final concentrations for each drug treatment to 25 nM, 50 nM, 100 nM, and 200 nM. Treated plates were mixed by gentle agitation for 30 seconds then incubated for 24 hours at 37° C./5% CO2. At the end of the 24 hour incubation media was immediately removed from each plate.
Media was incubated with antibody conjugated beads designed to bind to the epitopes of specific target proteins and identify the bound protein through the bead's distinctive spectral pattern. Biotinylated detection antibodies, designed to bind to different epitopes of the same target proteins, and Streptavidin-PE are added to assay plates to quantify the amount of the target proteins. Assay plates were read on the Luminex 200 and data were expressed as Net Median Fluorescence Intensity. […] The concentration of each protein was extrapolated from the antigen standard curve and concentrations were expressed as pg/mL (Table 15).

Compound: N#CCC1(n2cc(-c3ncnc4[nH]ccc34)cn2)CN(C2CCN(C(=O)c3ccnc(C(F)(F)F)c3F)CC2)C1 [Cpc B]
- BDNF concentration (drug 25 nM): 4.05 ± 0.19 pg/mL
- EGF concentration (drug 25 nM): 1.76 ± 0.17 pg/mL
- Eotaxin concentration (drug 25 nM): 10.22 ± 0.15 pg/mL
- FGF-2 concentration (drug 25 nM): 20.63 ± 1.49 pg/mL
- GM-CSF concentration (drug 25 nM): 130.13 ± 2.13 pg/mL
- GRO alpha concentration (drug 25 nM): 547.38 ± 31.41 pg/mL
- HGF concentration (drug 25 nM): 14.15 ± 0.3 pg/mL
- IFN alpha concentration (drug 25 nM): 0.24 ± 0.02 pg/mL
- IFN gamma concentration (drug 25 nM): 35023.68 ± 10759.49 pg/mL
- IL1RA concentration (drug 25 nM): 5944.59 ± 264.97 pg/mL
- IL1 alpha concentration (drug 25 nM): 7.34 ± 0.31 pg/mL
- IL1 beta concentration (drug 25 nM): 9.53 ± 0.3 pg/mL
- IL2 concentration (drug 25 nM): 33.62 ± 1.88 pg/mL
- IL4 concentration (drug 25 nM): 6.74 ± 1.65 pg/mL
- IL5 concentration (drug 25 nM): 27.31 ± 1.32 pg/mL
- IL6 concentration (drug 25 nM): 749.64 ± 32.94 pg/mL
- IL7 concentration (drug 25 nM): 2.14 ± 0.12 pg/mL
- IL8 concentration (drug 25 nM): 2837.03 ± 135.03 pg/mL
- IL9 concentration (drug 25 nM): 4.55 ± 0.85 pg/mL
- IL10 concentration (drug 25 nM): 0.87 ± 0.06 pg/mL
- IL12p70 concentration (drug 25 nM): 2.01 ± 0.21 pg/mL
- IL13 concentration (drug 25 nM): 2.79 ± 0.33 pg/mL
- IL15 concentration (drug 25 nM): 3.3 ± 0.93 pg/mL
- IL17A concentration (drug 25 nM): 4.6 ± 0.5 pg/mL
- IL18 concentration (drug 25 nM): 162.16 ± 4.98 pg/mL
- IL21 concentration (drug 25 nM): 2.66 ± 0.22 pg/mL
- IL22 concentration (drug 25 nM): 8.69 ± 0.42 pg/mL
- IL23 concentration (drug 25 nM): 7.28 ± 0.16 pg/mL
- IL27 concentration (drug 25 nM): 8.03 ± 1.71 pg/mL
- IL31 concentration (drug 25 nM): 3.6 ± 0.28 pg/mL
- IP-10/CXCL10 concentration (drug 25 nM): 4068.98 ± 507.12 pg/mL
- LIF concentration (drug 25 nM): 68.82 ± 2.51 pg/mL
- MCP1 concentration (drug 25 nM): 29762.04 ± 13226.23 pg/mL
- MIP1 alpha concentration (drug 25 nM): 103.81 ± 3.29 pg/mL
- MIP1 beta concentration (drug 25 nM): 319.77 ± 6.92 pg/mL
- PDGF-BB concentration (drug 25 nM): 5.19 ± 0.15 pg/mL
- PIGF-1 concentration (drug 25 nM): 56.69 ± 2.37 pg/mL
- RANTES concentration (drug 25 nM): 203.77 ± 12.55 pg/mL
- SCF concentration (drug 25 nM): 4.33 ± 0.18 pg/mL
- SDF-1 alpha concentration (drug 25 nM): 3430.87 ± 111.52 pg/mL
- TNF alpha concentration (drug 25 nM): 10574.99 ± 753.02 pg/mL
- TNF beta concentration (drug 25 nM): 4.91 ± 0.79 pg/mL
- VEGF-A concentration (drug 25 nM): 1249.75 ± 44.89 pg/mL
- VEGF-D concentration (drug 25 nM): 9.22 ± 0.87 pg/mL
- bNGF concentration (drug 25 nM): 7.7 ± 0.55 pg/mL
- BDNF concentration (drug 50 nM): 4.04 ± 0.24 pg/mL
- EGF concentration (drug 50 nM): 1.67 ± 0.15 pg/mL
- Eotaxin concentration (drug 50 nM): 9.92 ± 0.2 pg/mL
- FGF-2 concentration (drug 50 nM): 19.94 ± 1.49 pg/mL
- GM-CSF concentration (drug 50 nM): 128.05 ± 2.9 pg/mL
- GRO alpha concentration (drug 50 nM): 544.63 ± 38.3 pg/mL
- HGF concentration (drug 50 nM): 13.65 ± 0.53 pg/mL
- IFN alpha concentration (drug 50 nM): 0.26 ± 0 pg/mL
- IFN gamma concentration (drug 50 nM): 28977.92 ± 7400.61 pg/mL
- IL1RA concentration (drug 50 nM): 5840.44 ± 314.35 pg/mL
- IL1 alpha concentration (drug 50 nM): 7.06 ± 0.37 pg/mL
- IL1 beta concentration (drug 50 nM): 8.96 ± 0.43 pg/mL
- IL2 concentration (drug 50 nM): 31.96 ± 1.47 pg/mL
- IL4 concentration (drug 50 nM): 5.74 ± 1.1 pg/mL
- IL5 concentration (drug 50 nM): 25.5 ± 1.65 pg/mL
- IL6 concentration (drug 50 nM): 674.21 ± 27.15 pg/mL
- IL7 concentration (drug 50 nM): 1.9 ± 0.12 pg/mL
- IL8 concentration (drug 50 nM): 2862.21 ± 240.57 pg/mL
- IL9 concentration (drug 50 nM): 4.13 ± 0.43 pg/mL
- IL10 concentration (drug 50 nM): 0.85 ± 0.05 pg/mL
- IL12p70 concentration (drug 50 nM): 1.68 ± 0.21 pg/mL
- IL13 concentration (drug 50 nM): 2.73 ± 0.23 pg/mL
- IL15 concentration (drug 50 nM): 2.71 ± 0.65 pg/mL
- IL17A concentration (drug 50 nM): 4.09 ± 0.43 pg/mL
- IL18 concentration (drug 50 nM): 153.4 ± 3.46 pg/mL
- IL21 concentration (drug 50 nM): 2.45 ± 0.29 pg/mL
- IL22 concentration (drug 50 nM): 8.9 ± 0^ pg/mL
- IL23 concentration (drug 50 nM): 7.43 ± 0 pg/mL
- IL27 concentration (drug 50 nM): 6.95 ± 0.83 pg/mL
- IL31 concentration (drug 50 nM): 3.22 ± 0.38 pg/mL
- IP-10/CXCL10 concentration (drug 50 nM): 3872.74 ± 295.01 pg/mL
- LIF concentration (drug 50 nM): 67.89 ± 3.08 pg/mL
- MCP1 concentration (drug 50 nM): 27471.13 ± 12271.13 pg/mL
- MIP1 alpha concentration (drug 50 nM): 100.64 ± 4.66 pg/mL
- MIP1 beta concentration (drug 50 nM): 318.84 ± 8.17 pg/mL
- PDGF-BB concentration (drug 50 nM): 5.28 ± 0.18 pg/mL
- PIGF-1 concentration (drug 50 nM): 53.92 ± 2.81 pg/mL
- RANTES concentration (drug 50 nM): 198.35 ± 15.1 pg/mL
- SCF concentration (drug 50 nM): 4.16 ± 0.18 pg/mL
- SDF-1 alpha concentration (drug 50 nM): 3356.32 ± 136.22 pg/mL
- TNF alpha concentration (drug 50 nM): 11776.9 ± 1658.47 pg/mL
- TNF beta concentration (drug 50 nM): 4.13 ± 0.5 pg/mL
- VEGF-A concentration (drug 50 nM): 1242.76 ± 50.39 pg/mL
- VEGF-D concentration (drug 50 nM): 9.72 ± 0.75 pg/mL
- bNGF concentration (drug 50 nM): 7.09 ± 0.71 pg/mL
- BDNF concentration (drug 100 nM): 4.06 ± 0.26 pg/mL
- EGF concentration (drug 100 nM): 1.56 ± 0.2 pg/mL
- Eotaxin concentration (drug 100 nM): 10.09 ± 0.19 pg/mL
- FGF-2 concentration (drug 100 nM): 20.42 ± 1.5 pg/mL
- GM-CSF concentration (drug 100 nM): 133.06 ± 4.24 pg/mL
- GRO alpha concentration (drug 100 nM): 568.49 ± 35.18 pg/mL
- HGF concentration (drug 100 nM): 14.41 ± 0.55 pg/mL
- IFN alpha concentration (drug 100 nM): 0.26 ± 0 pg/mL
- IFN gamma concentration (drug 100 nM): 29276.66 ± 7697.74 pg/mL
- IL1RA concentration (drug 100 nM): 5953.24 ± 309.78 pg/mL
- IL1 alpha concentration (drug 100 nM): 7 ± 0.41 pg/mL
- IL1 beta concentration (drug 100 nM): 8.66 ± 0.41 pg/mL
- IL2 concentration (drug 100 nM): 31.33 ± 1.43 pg/mL
- IL4 concentration (drug 100 nM): 5.78 ± 0.72 pg/mL
- IL5 concentration (drug 100 nM): 26.52 ± 1.54 pg/mL
- IL6 concentration (drug 100 nM): 643.8 ± 27.14 pg/mL
- IL7 concentration (drug 100 nM): 2.12 ± 0.14 pg/mL
- IL8 concentration (drug 100 nM): 2980.9 ± 173.36 pg/mL
- IL9 concentration (drug 100 nM): 4.13 ± 0.43 pg/mL
- IL10 concentration (drug 100 nM): 0.88 ± 0.06 pg/mL
- IL12p70 concentration (drug 100 nM): 1.77 ± 0.18 pg/mL
- IL13 concentration (drug 100 nM): 2.55 ± 0.33 pg/mL
